Laboratory results: PubChem BioAssay AID308 (DTP/NCI, 2004)
Inconclusive results and toxic doses are left out. Rule for the calls: active = survival T/C of 150% or more; inactive = T/C below 125% in these data.

System: BDF1 mice, L1210 6-MP/6-TG resistant leukemia ip, survival T/C
Test: NCI In Vivo Anticancer Drug Screen. Data for tumor model L1210 Leukemia resistant to 6-MP and 6-Thioguanine; NSC 755, NSC 752 (intraperitoneal) in B6D2F1 (BDF1) mice
Conditions: endpoint: mean survival time, higher = longer survival
Description: The antitumor activity of compounds was measured in mice bearing transplantable tumors. Survival or tumor size were measured and the results are expressed as the measurement made in the treated group (T) divided by the measurement made in the vehicle treated control group (C). The tumor model used in this assay is L1210 Leukemia resistant to 6-MP and 6-Thioguanine; NSC 755, NSC 752 (intraperitoneal) in B6D2F1 (BDF1) mice

Measured: T/C

Nc1nc(=S)c2[nH]cnc2[nH]1
inactive: dose: 0.37 mg/kg/injection, schedule: Q01DX Z (ip), vehicle: carboxymethylcellulose (CMC) 123 % of control | dose: 0.5 mg/kg/injection, schedule: Q01DX Z (ip), vehicle: carboxymethylcellulose (CMC) 92 % of control | dose: 0.75 mg/kg/injection, schedule: Q01DX Z (ip), vehicle: carboxymethylcellulose (CMC) 101 % of control | dose: 1.0 mg/kg/injection, schedule: Q01DX Z (ip), vehicle: carboxymethylcellulose (CMC) 103 % of control | dose: 1.25 mg/kg/injection, schedule: Q01DX Z (ip), vehicle: carboxymethylcellulose (CMC) 104 % of control | dose: 2.5 mg/kg/injection, schedule: Q01DX Z (ip), vehicle: carboxymethylcellulose (CMC) 95 % of control

C[C@]12C=CC(=O)C=C1CC[C@@H]1[C@@H]2C(=O)C[C@@]2(C)[C@H]1CC[C@]2(O)C(=O)CO
inactive: dose: 50.0 mg/kg/injection, schedule: Q01DX Z (sc), vehicle: steriod suspending solution 105 % of control | dose: 100.0 mg/kg/injection, schedule: Q01DX Z (sc), vehicle: steriod suspending solution 100 % of control | dose: 150.0 mg/kg/injection, schedule: Q01DX Z (sc), vehicle: steriod suspending solution 93 % of control | dose: 200.0 mg/kg/injection, schedule: Q01DX Z (sc), vehicle: steriod suspending solution 96 % of control

CCC1(Sc2ncnc3nc[nH]c23)C(=O)NC(=O)NC1=O
inactive: dose: 6.25 mg/kg/injection, schedule: Q01DX010 (ip), vehicle: alkali diluted with saline 104 % of control | dose: 12.5 mg/kg/injection, schedule: Q01DX010 (ip), vehicle: alkali diluted with saline 96 % of control | dose: 25.0 mg/kg/injection, schedule: Q01DX010 (ip), vehicle: alkali diluted with saline 107 % of control | dose: 50.0 mg/kg/injection, schedule: Q01DX010 (ip), vehicle: alkali diluted with saline 102 % of control | dose: 100.0 mg/kg/injection, schedule: Q01DX010 (ip), vehicle: alkali diluted with saline 104 % of control | dose: 200.0 mg/kg/injection, schedule: Q01DX010 (ip), vehicle: alkali diluted with saline 107 % of control

CCCCNc1ncnc2c1cnn2C
inactive: dose: 2.5 mg/kg/injection, schedule: Q01DX Z (ip), vehicle: saline 105 % of control | dose: 5.0 mg/kg/injection, schedule: Q01DX Z (ip), vehicle: saline 105 % of control | dose: 10.0 mg/kg/injection, schedule: Q01DX Z (ip), vehicle: saline 105 % of control | dose: 20.0 mg/kg/injection, schedule: Q01DX Z (ip), vehicle: saline 104 % of control | dose: 31.0 mg/kg/injection, schedule: Q01DX Z (ip), vehicle: saline 119 % of control | dose: 62.5 mg/kg/injection, schedule: Q01DX Z (ip), vehicle: saline 104 % of control | dose: 125.0 mg/kg/injection, schedule: Q01DX Z (ip), vehicle: saline 95 % of control
